Article PMC3261198, “Mitochondrial Apoptosis and FAK Signaling Disruption by a Novel Histone Deacetylase Inhibitor, HTPB, in Antitumor and Antimetastatic Mouse Models” (PLoS ONE, 2012)
pIC50: −log10 of the molar value.

Columns and labels:
[1] = in vitro; details: human, H1299 cells
[2] = test system: A549 lung tumor xenograft; assay: In vivo anti-tumor growth assay; details: for tumor growth inhibition compared with DMSO control / tumor growth inhibition: 3 days/week for three weeks; for tumor growth inhibition: oral
[3] = test system: MMP-9; details: A549 and H1299 cells, 2.5 µM, 48 hours
[4] = test system: H1299 cells; assay: cells; details: Homo sapiens, NCI-H1299, 48 h, read-out: IC50 (cytotoxicity)
[5] = biological target: HDAC8 (Homo sapiens, UniProt Q9BY41); details: HTPB 1 or 2 µM; class I HDAC from A549 cells
[6] = test system: IMR90 normal lung cell line; details: 0.5–10 µM, 48 hours, MTT
[7] = biological target: HDAC6 (Homo sapiens, UniProt Q9UBN7); details: HTPB 1 or 2 µM; class II HDAC from A549 cells
[8] = test system: 4T1-luc breast cancer cells; details: 1.92 µM, 48 hours
[9] = test system: A549 cells; assay: cells; details: Homo sapiens, A549, 48 h, read-out: IC50 (cytotoxicity)
[10] = test system: H1299 cells; details: H1299, 5 µM, 24 hours
[11] = test system: RhoA; details: A549 and H1299 cells, 2.5 µM, 48 hours
[12] = test system: acetylation of histone H3, histone H4 and p53; details: single dose 50 mg/kg intraperitoneal, after 2 hours
[13] = biological target: HDAC1 (Homo sapiens, UniProt Q13547); details: HTPB 1 or 2 µM; class I HDAC from A549 cells
[14] = test system: 4T1-luc breast cancer cells; details: 1.92 µM, 48 hours; remark: listed apart in the source
[15] = test system: acetylation of histone H3, histone H4, p53 and tubulin; details: time- and dose-dependent, Western blot
[16] = test system: MMP-2; details: A549 and H1299 cells, 2.5 µM, 48 hours
[17] = test system: lung metastasis of 4T1-luc cells; details: cells pre-treated with 1.92 µM for 48 hours, injected via tail vein, imaged 13 days
[18] = biological target: HDAC11 (Homo sapiens, UniProt Q96DB2); details: HTPB 1 or 2 µM; class IV HDAC from A549 cells
[19] = test system: A549 cells; details: A549, 5 µM, 24 hours
[20] = biological target: HDAC4 (Homo sapiens, UniProt P56524); details: HTPB 1 or 2 µM; class II HDAC from A549 cells
[21] = in vitro; details: human, A549 cells
[22] = test system: HDAC; details: Fig. S5, compared to MS275
[23] = 25–100 mg/kg intraperitoneal or oral, three weeks

Chain of HDAC11 (Q96DB2 whole entry): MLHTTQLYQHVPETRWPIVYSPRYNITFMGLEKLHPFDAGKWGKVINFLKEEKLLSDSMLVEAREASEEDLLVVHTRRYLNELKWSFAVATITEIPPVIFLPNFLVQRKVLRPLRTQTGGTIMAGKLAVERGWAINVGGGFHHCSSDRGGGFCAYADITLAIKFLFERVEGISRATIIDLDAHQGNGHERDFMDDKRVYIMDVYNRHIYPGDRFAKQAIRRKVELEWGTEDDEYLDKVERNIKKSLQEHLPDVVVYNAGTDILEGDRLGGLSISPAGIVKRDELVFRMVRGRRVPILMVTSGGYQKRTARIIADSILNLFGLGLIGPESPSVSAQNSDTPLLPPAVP
Chain of HDAC6 (Q9UBN7 whole entry): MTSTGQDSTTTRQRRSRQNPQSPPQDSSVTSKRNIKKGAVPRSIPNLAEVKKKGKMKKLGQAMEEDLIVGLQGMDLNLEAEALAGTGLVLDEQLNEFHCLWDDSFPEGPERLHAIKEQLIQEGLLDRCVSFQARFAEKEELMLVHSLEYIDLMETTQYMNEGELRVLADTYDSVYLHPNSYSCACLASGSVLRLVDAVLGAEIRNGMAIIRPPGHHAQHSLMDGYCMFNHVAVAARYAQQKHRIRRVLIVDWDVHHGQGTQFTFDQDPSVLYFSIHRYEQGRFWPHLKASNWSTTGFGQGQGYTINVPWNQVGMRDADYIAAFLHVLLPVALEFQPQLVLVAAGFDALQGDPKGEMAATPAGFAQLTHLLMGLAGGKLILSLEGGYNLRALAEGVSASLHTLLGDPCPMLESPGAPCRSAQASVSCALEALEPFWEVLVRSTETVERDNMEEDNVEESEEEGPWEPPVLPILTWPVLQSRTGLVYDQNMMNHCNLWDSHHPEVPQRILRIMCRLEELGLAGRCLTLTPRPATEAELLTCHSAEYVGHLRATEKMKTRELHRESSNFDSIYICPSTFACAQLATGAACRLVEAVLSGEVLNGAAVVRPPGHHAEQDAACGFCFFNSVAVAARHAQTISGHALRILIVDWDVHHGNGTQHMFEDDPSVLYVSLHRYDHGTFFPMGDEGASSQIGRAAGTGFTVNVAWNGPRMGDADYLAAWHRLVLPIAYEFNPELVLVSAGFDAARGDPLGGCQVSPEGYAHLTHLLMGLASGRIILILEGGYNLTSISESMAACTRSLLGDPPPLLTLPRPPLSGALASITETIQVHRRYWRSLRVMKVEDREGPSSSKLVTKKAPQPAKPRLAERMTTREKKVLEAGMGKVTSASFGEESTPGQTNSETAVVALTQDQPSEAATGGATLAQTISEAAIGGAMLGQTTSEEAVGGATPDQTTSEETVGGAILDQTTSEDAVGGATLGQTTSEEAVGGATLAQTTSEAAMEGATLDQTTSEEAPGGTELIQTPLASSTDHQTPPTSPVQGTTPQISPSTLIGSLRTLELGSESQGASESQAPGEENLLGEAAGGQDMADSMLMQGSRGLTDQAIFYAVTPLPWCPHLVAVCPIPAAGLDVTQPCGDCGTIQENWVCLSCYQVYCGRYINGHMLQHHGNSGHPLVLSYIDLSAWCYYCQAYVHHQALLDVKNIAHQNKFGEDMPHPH
Chain of HDAC8 (Q9BY41 whole entry): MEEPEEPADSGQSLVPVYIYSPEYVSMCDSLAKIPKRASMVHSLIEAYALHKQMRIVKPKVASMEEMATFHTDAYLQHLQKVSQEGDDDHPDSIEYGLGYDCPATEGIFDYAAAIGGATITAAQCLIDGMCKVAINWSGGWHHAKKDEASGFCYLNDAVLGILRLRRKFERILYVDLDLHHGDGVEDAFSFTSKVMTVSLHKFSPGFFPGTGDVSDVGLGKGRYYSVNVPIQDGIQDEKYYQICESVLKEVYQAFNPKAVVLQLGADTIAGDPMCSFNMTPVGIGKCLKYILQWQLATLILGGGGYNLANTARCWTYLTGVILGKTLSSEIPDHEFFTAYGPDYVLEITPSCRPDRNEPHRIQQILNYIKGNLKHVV
Chain of HDAC1 (Q13547 whole entry): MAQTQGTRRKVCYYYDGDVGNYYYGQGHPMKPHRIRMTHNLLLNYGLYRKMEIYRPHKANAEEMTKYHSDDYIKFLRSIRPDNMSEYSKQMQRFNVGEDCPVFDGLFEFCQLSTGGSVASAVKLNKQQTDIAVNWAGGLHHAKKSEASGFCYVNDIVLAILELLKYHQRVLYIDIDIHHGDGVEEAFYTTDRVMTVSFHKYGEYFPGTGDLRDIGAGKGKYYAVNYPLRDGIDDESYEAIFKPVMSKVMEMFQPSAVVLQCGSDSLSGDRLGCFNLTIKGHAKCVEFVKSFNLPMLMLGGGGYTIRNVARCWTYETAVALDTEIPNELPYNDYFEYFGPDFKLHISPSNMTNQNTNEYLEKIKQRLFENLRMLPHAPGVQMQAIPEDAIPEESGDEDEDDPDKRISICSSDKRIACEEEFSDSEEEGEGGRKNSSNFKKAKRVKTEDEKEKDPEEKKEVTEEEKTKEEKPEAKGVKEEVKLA

O=C(CCCc1ccccc1)Nc1ccc(C(=O)NO)cc1 [HTPB, N-Hydroxy-4-(4-phenylbutyryl-amino)benzamide]
viability at 48 h, 0.5 µM [1]: 94%
viability at 48 h, 1 µM [1]: 85%
tumor growth inhibition compared with DMSO control ([2]; intraperitoneal, 25 mg/kg): 80%
tumor growth inhibition compared with DMSO control ([2]; intraperitoneal, 50 mg/kg): 94%
anti-tumor growth effect, times more potent than SAHA as assessed by tumor weight ([2]; intraperitoneal, tumor weight): 2–4 times
tumor growth inhibition ([2]; 50 mg/kg): 39%
tumor growth inhibition ([2]; 100 mg/kg): 79%
MMP-9 enzyme activity [3]: significantly decreased
pIC50 [4]: 5.66
deacetylase activity of HDAC8 [5]: significantly inhibited
cytotoxicity towards IMR90 normal lung cell line [6]: without showing apparent cytotoxicity
deacetylase activity of HDAC6 [7]: significantly inhibited
transwell migration capacities compared to the un-treated control [8]: 50%
pIC50 [9]: 5.80
caspase-3 activity [10]: significantly stimulated
caspase-9 activity [10]: significantly stimulated
RhoA activity (RhoA-GTP) [11]: markedly decreased
acetylation of histone H3, histone H4 and p53 in tumor xenograft [12]: profoundly increased
deacetylase activity of HDAC1 [13]: significantly inhibited
cell viability of 4T1-luc cells [14]: did not change cell viability
acetylation of histone H3, histone H4, p53 and tubulin [15]: induced acetylation
MMP-2 enzyme activity [16]: significantly decreased
lung metastasis of 4T1-luc cells [17]: significantly delayed lung metastasis
deacetylase activity of HDAC11 [18]: significantly inhibited
caspase-3 activity [19]: significantly stimulated
caspase-9 activity [19]: significantly stimulated
deacetylase activity of HDAC4 [20]: significantly inhibited
viability at 48 h, 0.5 µM [21]: 87%
viability at 48 h, 1 µM [21]: 80%
in vitro HDAC activity compared to MS275 [22]: significant inhibition
effect on body weight [23]: did not adversely affect body weight
toxicity by hematological biochemistry examinations (GOT, GPT, albumin, creatinine) [23]: no detectable toxicity
